In patent US11306081B2, “Phenylacetamides as inhibitors of rock” (BRISTOL-MYERS SQUIBB COMPANY, priority 2017, dated 2022):

molecular target: ROCK2 (Homo sapiens (Human), UniProt O75116); experiment: ROCK assay (LABCHIP 3000 peptide phosphorylation assay); type: biochemical; settings: 5 μM ATP, 1.5 μM peptide substrate, dose-response
Procedure, shortened: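 Rho kinase variants in 20 mM HEPES pH 7.5, 20 mM MgCl2, 0.015% Brij-35, 4 mM DTT, 5 μM ATP, 1.5 μM FITC-AHA-AKRRRLSSLRA-OH peptide; DMSO <2%. EDTA-stopped; phosphorylated/non-phosphorylated peptide separated by microfluidic LabChip readout. Dose-response inhibition curve-fitted to give IC50.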

Sequence of ROCK2 (O75116 whole entry, species assumed): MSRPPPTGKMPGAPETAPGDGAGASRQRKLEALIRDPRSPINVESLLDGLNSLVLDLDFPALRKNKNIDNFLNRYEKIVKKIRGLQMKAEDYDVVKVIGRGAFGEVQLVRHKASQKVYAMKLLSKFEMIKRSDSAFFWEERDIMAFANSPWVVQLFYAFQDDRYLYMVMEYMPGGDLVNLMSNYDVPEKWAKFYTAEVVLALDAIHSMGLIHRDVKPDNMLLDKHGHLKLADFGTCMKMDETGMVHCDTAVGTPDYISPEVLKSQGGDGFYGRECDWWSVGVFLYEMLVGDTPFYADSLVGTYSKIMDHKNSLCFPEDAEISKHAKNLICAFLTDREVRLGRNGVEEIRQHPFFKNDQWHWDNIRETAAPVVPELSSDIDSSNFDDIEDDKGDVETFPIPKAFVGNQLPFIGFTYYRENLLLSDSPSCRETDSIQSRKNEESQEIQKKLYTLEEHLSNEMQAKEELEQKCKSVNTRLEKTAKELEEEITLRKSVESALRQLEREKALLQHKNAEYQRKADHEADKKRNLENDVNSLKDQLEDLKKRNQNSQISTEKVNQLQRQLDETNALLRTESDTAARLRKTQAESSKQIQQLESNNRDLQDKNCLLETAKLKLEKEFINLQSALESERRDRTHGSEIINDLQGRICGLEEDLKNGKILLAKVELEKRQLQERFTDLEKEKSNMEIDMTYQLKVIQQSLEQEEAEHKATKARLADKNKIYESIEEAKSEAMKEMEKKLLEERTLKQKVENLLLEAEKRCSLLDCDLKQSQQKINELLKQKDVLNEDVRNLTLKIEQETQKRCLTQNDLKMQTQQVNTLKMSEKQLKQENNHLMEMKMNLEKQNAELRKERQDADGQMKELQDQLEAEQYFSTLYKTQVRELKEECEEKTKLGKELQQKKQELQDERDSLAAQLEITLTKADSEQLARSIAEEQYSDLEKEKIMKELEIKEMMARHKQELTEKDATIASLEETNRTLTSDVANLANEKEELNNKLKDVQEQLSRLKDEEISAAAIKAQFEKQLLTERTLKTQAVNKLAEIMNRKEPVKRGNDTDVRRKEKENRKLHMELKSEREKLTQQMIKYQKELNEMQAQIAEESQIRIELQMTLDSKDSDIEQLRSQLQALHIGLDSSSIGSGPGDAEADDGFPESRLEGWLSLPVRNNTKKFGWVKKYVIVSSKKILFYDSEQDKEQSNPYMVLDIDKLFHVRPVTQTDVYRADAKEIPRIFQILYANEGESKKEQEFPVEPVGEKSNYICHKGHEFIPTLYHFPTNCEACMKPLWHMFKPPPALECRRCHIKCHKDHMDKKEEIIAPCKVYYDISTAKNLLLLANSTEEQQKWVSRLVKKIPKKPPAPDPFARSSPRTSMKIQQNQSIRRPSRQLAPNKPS

Row | IC50 | SMILES
1 | 129 nM | Cc1ccc2nc(NC(=O)Cc3ccc(Oc4ncccc4C(N)=O)c(F)c3)nn2c1C [Example 131, 2-(4-(2-((5,6-dimethyl-[1,2,4]-triazolo[1,5-a]-pyridin-2-yl)-amino)-2-oxoethyl)-2-fluorophenoxy)-nicotinamide]
2 | 129 nM | NC(=O)c1cccnc1Oc1ccc(CC(=O)Nc2nc3cc(C(F)(F)F)ccn3n2)cc1F [Example 132, 2-(2-fluoro-4-(2-oxo-2-((7-(trifluoro-methyl)-[1,2,4]-triazolo[1,5-a]-pyridin-2-yl)amino)-ethyl)phenoxy)-nicotinamide]
3 | 198 nM | NC(=O)c1cccnc1Oc1ccc(CC(=O)Nc2cn3cc(C(F)(F)F)ccc3n2)cc1F [Example 133, 2-(2-fluoro-4-(2-oxo-2-((6-(trifluoro-methyl)imidazo-[1,2-a]pyridin-2-yl)amino)ethyl)-phenoxy)nicotin-amide]
4 | 44 nM | NC(=O)c1cccnc1Oc1ccc(CC(=O)Nc2nc3cc(Br)ccn3n2)cc1F [Example 134, 2-(4-(2-((7-bromo-[1,2,4]triazolo[1,5-a]pyridin-2-yl)amino)-2-oxoethyl)-2-fluorophenoxy)nicotinamide]
5 | 25 nM | NC(=O)c1cccnc1Oc1ccc(CC(=O)Nc2nc3cc(-c4cnn(C(F)F)c4)ccn3n2)cc1F [Example 135, 2-(4-(2-((7-(1-(difluoro-methyl)-1H-pyrazol-4-yl)-[1,2,4]-triazolo[1,5-a]pyridin-2-yl)amino)-2-oxoethyl)-2-fluorophen-oxy)nicotin-amide]
6 | 11 nM | Cc1nn(C)cc1-c1ccn2nc(NC(=O)Cc3ccc(Oc4ncccc4C(N)=O)c(F)c3)nc2c1 [Example 136, 2-(4-(2-((7-(1,3-dimethyl-1H-pyrazol-4-yl)-[1,2,4]-triazolo[1,5-a]pyridin-2-yl)amino)-2-oxoethyl)-2-fluorophen-oxy)nicotin-amide]
7 | 13 nM | Cn1nccc1-c1ccn2nc(NC(=O)Cc3ccc(Oc4ncccc4C(N)=O)c(F)c3)nc2c1 [Example 137, 2-(2-fluoro-4-(2-((7-(1-methyl-1H-pyrazol-5-yl)-[1,2,4]-triazolo[1,5-a]pyridin-2-yl)amino)-2-oxoethyl)-phenoxy) nicotinamide]
8 | 39 nM | Cn1nccc1-c1ccc2nc(NC(=O)Cc3ccc(Oc4ncccc4C(N)=O)c(F)c3)nn2c1 [Example 138, 2-(2-fluoro-4-(2-((6-(1-methyl-1H-pyrazol-5-yl)-[1,2,4]triazolo[1,5-a]pyridin-2-yl)amino)-2-oxoethyl)phenoxy)nicotinamide]
9 | 25 nM | NC(=O)c1cccnc1Oc1ccc(CC(=O)Nc2nc3c(OC(F)F)cccn3n2)cc1F [Example 139, 2-(4-(2-((8-(difluoromethoxy)-[1,2,4]triazolo[1,5-a]pyridin-2-yl)amino)-2-oxoethyl)-2-fluorophenoxy)nicotinamide]
10 | 93 nM | NC(=O)c1cccnc1Oc1ccc(CC(=O)Nc2nc3ccc(OC(F)(F)F)cn3n2)cc1F [Example 140, 2-(2-fluoro-4-(2-oxo-2-((6-(trifluoromethoxy)-[1,2,4]triazolo[1,5-a]pyridin-2-yl)amino)ethyl)phenoxy)nicotinamide]
11 | 34 nM | NC(=O)c1cccnc1Oc1ccc(CC(=O)Nc2nc3c(C(F)(F)F)cccn3n2)cc1F [Example 141, 2-(2-fluoro-4-(2-oxo-2-((8-(trifluoromethyl)-[1,2,4]triazolo[1,5-a]pyridin-2-yl)amino)ethyl)phenoxy)nicotinamide]
12 | 72 nM | NC(=O)c1cccnc1Oc1ccc(CC(=O)Nc2nc3cc(F)ccn3n2)cc1F [Example 142, 2-(2-fluoro-4-(2-((7-fluoro-[1,2,4]triazolo[1,5-a]pyridin-2-yl)amino)-2-oxoethyl)phenoxy)nicotinamide]
13 | 6 nM | NC(=O)c1cccnc1Oc1ccc(CC(=O)Nc2nc3cc(OCc4ccccc4)ccn3n2)cc1F [Example 143, 2-(4-(2-((7-(benzyloxy)-[1,2,4]triazolo[1,5-a]pyridin-2-yl)amino)-2-oxoethyl)-2-fluorophenoxy)nicotinamide]
